Test results from patent publication US12226412B2, “Heteroaryl-ketone fused azadecalin glucocorticoid receptor modulators” (Corcept Therapeutics, Inc., priority 2012, dated 2025).

Legend:
human recombinant GR = biological target: T1, human recombinant GR (Homo sapiens, UniProt P04150); test: Human glucocorticoid receptor (GR) fluorescence polarisation (FP) binding assay; conditions: human recombinant GR, fluorescence polarisation binding assay; read-out: GR binding
T1 construct: purchased PanVera P2812
T1 sequence (P04150 1-777): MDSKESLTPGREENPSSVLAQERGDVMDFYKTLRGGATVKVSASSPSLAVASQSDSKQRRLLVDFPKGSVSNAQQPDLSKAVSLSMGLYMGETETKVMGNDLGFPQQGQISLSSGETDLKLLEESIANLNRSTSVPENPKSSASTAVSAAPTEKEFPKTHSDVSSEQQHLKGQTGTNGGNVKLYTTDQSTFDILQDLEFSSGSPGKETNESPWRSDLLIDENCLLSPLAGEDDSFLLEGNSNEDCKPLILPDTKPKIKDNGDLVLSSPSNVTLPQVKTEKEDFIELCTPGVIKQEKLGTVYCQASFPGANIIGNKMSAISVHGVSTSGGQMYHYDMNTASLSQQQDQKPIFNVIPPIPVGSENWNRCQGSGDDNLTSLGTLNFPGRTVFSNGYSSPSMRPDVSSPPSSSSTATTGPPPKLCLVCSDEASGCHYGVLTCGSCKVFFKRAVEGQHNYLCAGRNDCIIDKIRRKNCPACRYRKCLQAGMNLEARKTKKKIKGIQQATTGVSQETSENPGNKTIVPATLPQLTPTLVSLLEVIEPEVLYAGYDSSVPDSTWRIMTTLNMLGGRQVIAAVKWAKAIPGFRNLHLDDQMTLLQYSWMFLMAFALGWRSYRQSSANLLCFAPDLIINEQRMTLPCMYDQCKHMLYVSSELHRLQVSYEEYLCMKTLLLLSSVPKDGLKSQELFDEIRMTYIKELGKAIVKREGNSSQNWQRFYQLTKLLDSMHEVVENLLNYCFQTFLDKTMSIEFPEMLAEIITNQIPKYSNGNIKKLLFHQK
Procedure, shortened: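 Competition fluorescence polarisation: 0.5 nM GS Red labelled glucocorticoid and 1 nM recombinant human GR with 8-point half-log compound series, 1% DMSO, 4 h room temperature, potassium phosphate pH 7.4 buffer with molybdate, EDTA, DTT. Affinity derived from the drop in polarisation, normalised to blank wells.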

[1] = tested on: induction of TAT by dexamethasone in HepG2 cells; test: HepG2 tyrosine aminotransferase (TAT) assay; type: cell-based, human; conditions: HepG2 cells, challenge of 100 nM dexamethasone; Ki from IC50 by Cheng and Prusoff equation

| Ki (human recombinant GR) [nM] | Structure (SMILES) | Ki [1] [nM] |
| --- | --- | --- |
| < 0.5 | Cn1nccc1S(=O)(=O)N1CCC2=Cc3c(cnn3-c3ccc(F)cc3)C[C@]2(C(=O)c2cc(C(F)(F)F)ccn2)C1 [Example 11BM, (R)-(1-(4-fluorophenyl)-6-((1-methyl-1H-pyrazol-5-yl)sulfonyl)-4,4a,5,6,7,8-hexahydro-1H-pyrazolo[3,4-g]isoquinolin-4a-yl)(4-(trifluoromethyl)pyridin-2-yl)methanone] | < 20 |
| < 0.5 | Cc1c(S(=O)(=O)N2CCC3=Cc4c(cnn4-c4ccc(F)cc4)C[C@]3(C(=O)c3cc(C(F)(F)F)ccn3)C2)cnn1C [Example 11BN, (R)-(6-((1,5-dimethyl-1H-pyrazol-4-yl)sulfonyl)-1-(4-fluorophenyl)-4,4a,5,6,7,8-hexahydro-1H-pyrazolo[3,4-g]isoquinolin-4a-yl)(4-(trifluoromethyl)pyridin-2-yl)methanone] | < 20 |
| < 0.5 | O=C(c1cc(C(F)(F)F)ccn1)[C@]12Cc3cnn(-c4ccc(F)cc4)c3C=C1CCN(S(=O)(=O)c1cn[nH]c1)C2 [Example 11BO, (R)-(6-((1H-pyrazol-4-yl)sulfonyl)-1-(4-fluorophenyl)-4,4a,5,6,7,8-hexahydro-1H-pyrazolo[3,4-g]isoquinolin-4a-yl)(4-(trifluoromethyl)pyridin-2-yl)methanone] | < 20 |
| < 0.5 | Cn1cc(S(=O)(=O)N2CCC3=Cc4c(cnn4-c4ccc(F)cc4)C[C@]3(C(=O)c3ccccn3)C2)c(C(F)(F)F)n1 [Example 11BP, (R)-(1-(4-fluorophenyl)-6-((1-methyl-3-(trifluoromethyl)-1H-pyrazol-4-yl)sulfonyl)-4,4a,5,6,7,8-hexahydro-1H-pyrazolo[3,4-g]isoquinolin-4a-yl)(pyridin-2-yl)methanone] | ≥ 100 |
| > 1 | O=C(c1cc(C(F)(F)F)ccn1)[C@]12Cc3cnn(-c4ccc(F)cc4)c3C=C1CCN(S(=O)(=O)c1cc(F)c(F)c(F)c1)C2 [Example 11BQ, (R)-(1-(4-fluorophenyl)-6-((3,4,5-trifluorophenyl)sulfonyl)-4,4a,5,6,7,8-hexahydro-1H-pyrazolo[3,4-g]isoquinolin-4a-yl)(4-(trifluoromethyl)pyridin-2-yl)methanone] | < 20 |
| 0.5 to 1 | Cn1ccc(S(=O)(=O)N2CCC3=Cc4c(cnn4-c4ccc(Cl)cc4)C[C@]3(C(=O)c3cc(C(F)(F)F)ccn3)C2)n1 [Example 11BR, (R)-(1-(4-chlorophenyl)-6-((1-methyl-1H-pyrazol-3-yl)sulfonyl)-4,4a,5,6,7,8-hexahydro-1H-pyrazolo[3,4-g]isoquinolin-4a-yl)(4-(trifluoromethyl)pyridin-2-yl)methanone] | < 20 |
| 0.5 to 1 | O=C(c1ccccn1)[C@]12Cc3cnn(-c4ccc(F)cc4)c3C=C1CCN(S(=O)(=O)c1cn[nH]c1)C2 [Example 11BS, (R)-(6-((1H-pyrazol-4-yl)sulfonyl)-1-(4-fluorophenyl)-4,4a,5,6,7,8-hexahydro-1H-pyrazolo[3,4-g]isoquinolin-4a-yl)(pyridin-2-yl)methanone] | 20 to 100 |
| > 1 | Cn1ccc(S(=O)(=O)N2CCC3=Cc4c(cnn4-c4ccc(C(F)(F)F)cc4)C[C@]3(C(=O)c3ccccn3)C2)n1 [Example 11BT, (R)-(6-((1-methyl-1H-pyrazol-3-yl)sulfonyl)-1-(4-(trifluoromethyl)phenyl)-4,4a,5,6,7,8-hexahydro-1H-pyrazolo[3,4-g]isoquinolin-4a-yl)(pyridin-2-yl)methanone] | ≥ 100 |
| > 1 | O=C(c1cscn1)[C@]12Cc3cnn(-c4ccc(F)cc4)c3C=C1CCN(S(=O)(=O)c1ccc(F)c(F)c1)C2 [Example 11BU, (R)-(6-((3,4-difluorophenyl)sulfonyl)-1-(4-fluorophenyl)-4,4a,5,6,7,8-hexahydro-1H-pyrazolo[3,4-g]isoquinolin-4a-yl)(thiazol-4-yl)methanone] | 20 to 100 |
| < 0.5 | Cc1nc(S(=O)(=O)N2CCC3=Cc4c(cnn4-c4ccc(F)cc4)C[C@]3(C(=O)c3cc(C(F)(F)F)ccn3)C2)cn1C [Example 11BV, (R)-(6-((1,2-dimethyl-1H-imidazol-4-yl)sulfonyl)-1-(4-fluorophenyl)-4,4a,5,6,7,8-hexahydro-1H-pyrazolo[3,4-g]isoquinolin-4a-yl)(4-(trifluoromethyl)pyridin-2-yl)methanone] | < 20 |
| > 1 | Cc1ncc(S(=O)(=O)N2CCC3=Cc4c(cnn4-c4ccc(F)cc4)C[C@]3(C(=O)c3cc(C(F)(F)F)ccn3)C2)n1C [Example 11BW, (R)-(6-((1,2-dimethyl-1H-imidazol-5-yl)sulfonyl)-1-(4-fluorophenyl)-4,4a,5,6,7,8-hexahydro-1H-pyrazolo[3,4-g]isoquinolin-4a-yl)(4-(trifluoromethyl)pyridin-2-yl)methanone] | 20 to 100 |
| 0.5 to 1 | Cn1ccnc1S(=O)(=O)N1CCC2=Cc3c(cnn3-c3ccc(F)cc3)C[C@]2(C(=O)c2cc(C(F)(F)F)ccn2)C1 [Example 11BX, (R)-(1-(4-fluorophenyl)-6-((1-methyl-1H-imidazol-2-yl)sulfonyl)-4,4a,5,6,7,8-hexahydro-1H-pyrazolo[3,4-g]isoquinolin-4a-yl)(4-(trifluoromethyl)pyridin-2-yl)methanone] | < 20 |
| < 0.5 | CCn1cnc(S(=O)(=O)N2CCC3=Cc4c(cnn4-c4ccc(F)cc4)C[C@]3(C(=O)c3cc(C(F)(F)F)ccn3)C2)c1 [Example 11BY, (R)-(6-((1-ethyl-1H-imidazol-4-yl)sulfonyl)-1-(4-fluorophenyl)-4,4a,5,6,7,8-hexahydro-1H-pyrazolo[3,4-g]isoquinolin-4a-yl)(4-(trifluoromethyl)pyridin-2-yl)methanone] | < 20 |
| < 0.5 | CCn1cc(S(=O)(=O)N2CCC3=Cc4c(cnn4-c4ccc(F)cc4)C[C@]3(C(=O)c3cscn3)C2)cn1 [Example 11BZ, (R)-(6-((1-ethyl-1H-pyrazol-4-yl)sulfonyl)-1-(4-fluorophenyl)-4,4a,5,6,7,8-hexahydro-1H-pyrazolo[3,4-g]isoquinolin-4a-yl)(thiazol-4-yl)methanone] | 20 to 100 |
| < 0.5 | COc1ccc(S(=O)(=O)N2CCC3=Cc4c(cnn4-c4ccc(F)cc4)C[C@]3(C(=O)c3ccccn3)C2)cc1Cl [Example 11C, (R)-(6-((3-chloro-4-methoxyphenyl)sulfonyl)-1-(4-fluorophenyl)-4,4a,5,6,7,8-hexahydro-1H-pyrazolo[3,4-g]isoquinolin-4a-yl)(pyridin-2-yl)methanone] | 20 to 100 |
| < 0.5 | CCCn1cc(S(=O)(=O)N2CCC3=Cc4c(cnn4-c4ccc(F)cc4)C[C@]3(C(=O)c3ccccn3)C2)cn1 [Example 11CA, (R)-(1-(4-fluorophenyl)-6-((1-propyl-1H-pyrazol-4-yl)sulfonyl)-4,4a,5,6,7,8-hexahydro-1H-pyrazolo[3,4-g]isoquinolin-4a-yl)(pyridin-2-yl) methanone] | < 20 |
| < 0.5 | COCCn1cc(S(=O)(=O)N2CCC3=Cc4c(cnn4-c4ccc(F)cc4)C[C@]3(C(=O)c3ccccn3)C2)cn1 [Example 11CB, (R)-(1-(4-fluorophenyl)-6-((1-(2-methoxyethyl)-1H-pyrazol-4-yl)sulfonyl)-4,4a,5,6,7,8-hexahydro-1H-pyrazolo[3,4-g]isoquinolin-4a-yl)(pyridin-2-yl)methanone] | < 20 |
| > 1 | Cn1cc(C(=O)[C@]23Cc4cnn(-c5ccc(F)cc5)c4C=C2CCN(S(=O)(=O)c2ccc(Cl)c(Cl)c2)C3)cn1 [Example 11CC, (R)-(6-((3,4-dichlorophenyl)sulfonyl)-1-(4-fluorophenyl)-4,4a,5,6,7,8-hexahydro-1H-pyrazolo[3,4-g]isoquinolin-4a-yl)(1-methyl-1H-pyrazol-4-yl)methanone] | 20 to 100 |
| < 0.5 | CC(C)n1cc(S(=O)(=O)N2CCC3=Cc4c(cnn4-c4ccc(F)cc4)C[C@]3(C(=O)c3ccccn3)C2)cn1 [Example 11CD, (R)-(1-(4-fluorophenyl)-6-((1-isopropyl-1H-pyrazol-4-yl)sulfonyl)-4,4a,5,6,7,8-hexahydro-1H-pyrazolo[3,4-g]isoquinolin-4a-yl)(pyridin-2-yl) methanone] | < 20 |
| < 0.5 | Cn1ncc(S(=O)(=O)N2CCC3=Cc4c(cnn4-c4ccc(F)cc4)C[C@]3(C(=O)c3cc(C(F)(F)F)ccn3)C2)n1 [Example 11CE, (R)-(1-(4-fluorophenyl)-6-((2-methyl-2H-1,2,3-triazol-4-yl)sulfonyl)-4,4a,5,6,7,8-hexahydro-1H-pyrazolo[3,4-g]isoquinolin-4a-yl)(4-(trifluoromethyl)pyridin-2-yl)methanone] | < 20 |
